Experimental data: patent US20020061924A1, “Agent containing tocotrienol for drug” (priority 2000, published 2002)

Tests used:
[1] = test system: human erythrocyte membrane; assay: Reactivity with AAPH radicals on human erythrocyte membrane (residual rate); type: cell-based; details: for Residual Rate (%) 1 hr. / Residual Rate (%) 2 hrs. / Residual Rate (%) 3 hrs.: 10% erythrocyte suspension, 75 mM AAPH, 37° C.; for Residual Rate (%) 1 hr.: after 1 hour; for Residual Rate (%) 2 hrs.: after 2 hours; for Residual Rate (%) 3 hrs.: after 3 hours
Method: Human erythrocytes to be tested were prepared from blood of a healthy person by treating the blood according the method disclosed in Lipids, vol. 33 (6), p589-595 (1998). Actually, blood drawn from a healthy person was put in a test tube containing EDTA-2Na (1 mg/ml), and certrifuged at 1000×g at 4° C. for 20 minutes to be separated into erythrocytes and plasma. The erythrocytes were washed three times with 5 parts by volume of phosphate-buffered saline (PBS), and centrifuged exactly at 1000×g for 20 minutes to obtain a definite volume of packed erythrocytes.
The erythrocytes were subjected to hemolysis test according to the method of Miki et al., Arch. Biochem. Biophys. 258, p373-380. 0.5 ml of the human erythrocytes were suspended into 4 parts by volume of PBS, and a-tocotrienol ethanol solution was added thereto wherein the final ethanol concentration was made 0.5% (v/v) or less. After incubating the mixture at 37° C. for 30 minutes, the erythrocytes were washed. 10% suspension of the erythrocytes was incubated again. To the suspension, 75 mM AAPH-PBS solution was added, and oxidation was carried out at 37° C. in a dark place with stirring. The state of erythrocyte membrane, which was destroyed by radicals to induce hemolysis, was observed.
Similarly, the human erythrocytes were incubated with α-tocopherol for 30 minutes, washed, and 10% suspension of the erythrocytes was incubated again. To the suspension, 75 mM AAPH was added, and the state of erythrocyte membrane, which was destroyed by radicals to induce hemolysis, was observed.
Reactivity of α-tocotrienol and α-tocopherol with radicals on human erythrocyte membrane was examined, and residual rate of α-tocotrienol and α-tocopherol in solution was measured after 1, 2 and 3 hours.

Human erythrocytes = assay: Deformability of erythrocytes by Micro-Channel Array Flow Analyzer (MC-FAN); type: cell-based; details: for Passage Time: Table 1, control 54 ± 3; for Ratio to Control: passage time relative to control (1.00)
Method: Deformability of erythrocytes was measured using a Micro-Channel Array Flow Analyzer (MC-FAN) illustrated in FIG. 3 which measures time for passing total volume of an erythrocyte (8-10 μm) through a pore (6 μm) of a microchip.
Human erythrocytes were incubated with 43.3 μM α-tocotrienol for 30 minutes to incorporate the α-tocotrienol into the erythrocytes, and deformability of the erythrocytes was measured by the MC-FAN. As a control sample, human erythrocytes without α-tocotrienol were prepared, and the deformability was also measured.
In comparison, human erythrocytes were incubated with 40 μM α-tocopherol (vitamin E, Tokyo Kasei Kogyo) for 30 minutes to incorporate the α-tocopherol into the erythrocytes, and deformability of the erythrocytes was measured by the MC-FAN. As a result, passage time of the erythrocyte with a -tocopherol was 36 sec/ 100 μl RBC.

[2] = test system: hemolysis by dialuric acid; details: amount relative to comparator; cited from earlier work
[3] = Antioxidant action on monolayer liposome (iron-ascorbic acid, AAPH, lipoxigenase systems); details: tocotrienol compared with tocopherol
Method: (§1) Strength of antioxidant action of tocotrienol and tocopherol on monolayer liposome and erythrocyte membrane was evaluated by using iron-ascorbic acid, 2, 2′-azobis (2-amidinopropane).2HCl (AAPH) which is a water-soluble radical generator and lipoxigenase reaction system.

erythrocyte membrane = assay: Antioxidant action on erythrocyte membrane (iron-ascorbic acid, AAPH, lipoxigenase systems); type: cell-based; details: tocotrienol compared with tocopherol
Method: as §1

| Compound | Residual Rate (%) 1 hr. [1] [%] | Residual Rate (%) 2 hrs. [1] [%] | Residual Rate (%) 3 hrs. [1] [%] | Passage Time (Human erythrocytes) [sec/100 μ1 RBC] | passage time of the erythrocyte (Human erythrocytes; incubated with 40 μM for 30 minutes) [sec/ 100 μl RBC] | Ratio to Control (Human erythrocytes) | passage time of the erythrocyte (Human erythrocytes; incubated with 43.3 μM for 30 minutes, without compound 54) | inhibition of hemolysis by dialuric acid [2] | strength of antioxidant action on monolayer liposome [3] | incorporation (reaction rate with radicals) relative to tocopherol ([1]; from residual rates on human erythrocyte membrane) | ability of improving the deformability of erythrocytes (Human erythrocytes; comparison of tocotrienol with tocopherol) | strength of antioxidant action on erythrocyte membrane (erythrocyte membrane) |
| --- | --- | --- | --- | --- | --- | --- | --- | --- | --- | --- | --- | --- |
| Cc1c(C)c2c(c(C)c1O)CC[C@@](C)(CCC[C@H](C)CCC[C@H](C)CCCC(C)C)O2 [α-tocopherol, reference compound] | 41 ± 3 | 25 ± 4 | 19 ± 3 | 34 ± 5 | 36 | 0.63 | – | – | – | – | – | – |
| CC(C)=CCC/C(C)=C/CC/C(C)=C/CC[C@]1(C)CCc2c(C)c(O)c(C)c(C)c2O1 [α-tocotrienol] | 12 ± 2 | 7 ± 1 | 4 ± 1 | 26 ± 5 | – | 0.47 | 26 sec/100 μl erythrocyte (RBC) | inhibit hemolysis by dialuric acid even in an amount of one third | – | – | – | – |
| tocopherol [reference compound] | – | – | – | – | – | – | – | – | difference in the strength of antioxidant action on monolayer liposome was not found | – | – | – |
| tocotrienol | – | – | – | – | – | – | – | – | difference in the strength of antioxidant action on monolayer liposome was not found | about three to four times as much as that of tocopherol | more excellent than tocopherol | much greater than that of tocopherol |
